Experimental findings from patent US20160038459A1, “COMPOSITIONS AND METHODS FOR THE TREATMENT OF NATAL AND PRE-NATAL CONDITIONS WITH ALPHA-TOCOPHEROL” (Northwestern University, priority 2014, published 2016) are described below.

Data set [1] in a line: Liver tocopherol measurement by HPLC with electrochemical detection. Type of data set: in vivo, C57BL/6 mice. To be noted: PND13 pup liver. How it is done: Diets or livers were weighed and homogenized in absolute ethanol with 5% ascorbic acid on ice. The internal standard tocol is added to each […] to determine recovery. The homogenate or plasma was extracted with an equal volume of hexane with 0.37 wt/100 wt butylated hydroxytoluene to prevent oxidation and increase recovery of tocopherol. The samples were vortexed and then centrifuged for 10 min at 9,000 g at 4° C. The hexane layer was dried under nitrogen and stored at −20° C. The samples were reconstituted in methanol, and then tocopherols were separated using a reverse-phase C18 HPLC column (Hewlett Packard) and HPLC (Waters) with 99% methanol-1% water as a mobile phase with detection with an electrochemical detector (potential 0.7 V) (Waters).

Data set [2] relates to pup lung dendritic cell subsets. The experiment in a line: Flow cytometry analysis of pup lung dendritic cell subsets. The class given is in vivo, C57BL/6 mice. How it is done:
Following BAL of pups, lungs were removed for analysis of dendritic cell types by flow cytometry. In the fetus, hematopoiesis occurs in the fetal livers. Gestational day 18 fetal livers were collected for analysis of fetal liver DCs. Briefly, tissues were minced and suspended in 5 ml of RPMI solution containing 1 mg/ml collagenase D (Roche) and 0.2 mg/ml DNase I (Roche) at 37° C. with agitation. After 1 h, samples were filtered through sterile 70-μm mesh tissue, centrifuged, and resuspended in 5% FBS-RPMI solution. Red blood cells were lysed in 1×BD PharmLyse Lysing Buffer (BD Biosciences), and the cells were washed two times in PBS. All centrifugation steps were carried out at 300 g for 5 min. Three million cells were used per sample for immunolabeling.
The cells were stained for live/dead exclusion in 500 μl PBS containing 0.25 μl of Aqua fluorescent reactive dye (Molecular Probes, Invitrogen) for 20 min at room temperature in the dark. Next, FC receptors were blocked by incubating the cells in 50 μl flow cytometry staining buffer (Biolegend) with 0.75 μl purified rat anti-mouse CD16/CD32 Mouse BD FC Block (no. 553142; BD Pharmingen) for 10 min at 4° C.
To prepare the antibodies for immunolabeling, for each sample equivalent, an antibody stock was prepared by adding the following antibodies to 50 μl of flow cytometry buffer: 1) Live/Dead Aqua fluorescent dye (no. L34957; Molecular Probes, Invitrogen), 0.25 μl/sample; 2) CD45, rat anti-mouse FITC-conjugated, 0.5 mg/ml, clone 30-F11 (no. 103107; Biolegend), 0.31 μl/sample; 3) CD11b, rat anti-mouse PE-CF594-conjugated, 0.2 mg/ml, clone M1/70 (no. 562317; BD Biosciences), 0.05 μl/sample; 4) Ly-6C, rat anti-mouse APC/Cy7-conjugated, 0.2 mg/ml, clone HK1.4 (no. 128025; Biolegend), 0.4 μl/sample; 5) CD11c, Armenian hamster anti-mouse PE/Cy7-conjugated, 0.2 mg/ml, clone N418 (no. 117317; Biolegend), 0.2 μl/sample; 6) I-A/I-E (MHCII), rat anti-mouse PerCP/Cy5.5-conjugated, 0.2 mg/ml, clone M5/114.15.2 (no. 107625; Biolegend), 0.1 μl/sample; 7) CD103, Armenian hamster anti-mouse Brilliant Violet 421-conjugated, clone 2E7 (no. 121421; Biolegend), 0.2 μl/sample; 8) CD317 (PDCA-1), rat anti-mouse APC-conjugated, 0.2 mg/ml, clone 927 (no. […]
The cells were examined with a BD LSRII flow cytometer (BD Biosciences). […] Fluorescence Minus One staining controls were used as negative controls to identify gates for populations of interest. The following subpopulations of DCs were analyzed: 1) resident conventional DCs: CD11b+Ly6C−CD11chighMHCIIhigh; 2) CD11b+ alveolar DCs: CD11b+Ly6C−CD11c+MHCII−; 3) inflammatory DCs: CD11b+Ly6C+CD11c+MHCII+; 4) plasmacytoid DCs (pDCs): CD11b−Ly6C−CD11clowPDCA-1+MHCII−; 5) resident CD103+DCs: CD11b−Ly6C−CD11c+CD103+MHCII−; and 6) CD11b−alveolar DCs: CD11b−Ly6C−CD11c+MHCII+/−. […]

Data set [3] has as its system bone marrow-derived DCs co-cultured with CD4+ T cells. The experiment in a line: Bone marrow-derived DCs co-cultured 48 hours with purified CD4+ T cells. Type of data set: cell-based. To be noted: 80 μM α-T; 48 hours co-culture (not shown). How it is done: FIGS. 17A-C show α-T and γ-T have opposing effects in regulation of DC development and function in vitro. FIGS. 17A and B show results from bone marrow from postnatal day 10 neonate (with basal diet) that was cultured with GM-CSF and with 80 μM αT (FIG. 17B) or 2 μM γT (FIG. 17A) for 8 days and analyzed for DC subsets by immunolabeling/flow cytometry. *, p<0.05 compared to DMSO group. **, p<0.05 compared to indicated group. […] Expression by qPCR. There was no effect on cell viability (not shown). n=3. **, p<0.05 compared to all other groups. *, p<0.05 compared to DMSO group.

The test system of data set [4] is OVA-challenged pups from allergic mothers. The experiment in a line: OVA-induced allergic inflammation in pups from allergic mothers given D-α-tocopherol-supplemented diet.
Protocol: C57BL/6 female mice were maintained on chow diet. The mice were sensitized by intraperitoneal injection (200 μl) of ovalbumin (OVA) grade V (5 μg)/potassium aluminum sulfate (alum, 1 mg) or saline/alum (1 mg) on days 0 and 7 (26, 28, 46). The mice were exposed to nebulized saline or 3% (wt/vol) OVA in saline for 15 min on three consecutive days at 8, 12, and 16 wk of age. At 18 wk old, the female mice were challenged one time with 3% OVA (26, 28, 46) and then fed basal diet or diet supplemented with D-α-tocopherol (500 mg α-tocopherol/kg diet) (Table 1) (42, 52, 71). […] Ten days after starting the tocopherol-supplemented diet, females were mated with normal males. Three-day-old pups were sub-optimally sensitized by treating with only one 50-μl ip injection (rather than two injections) of 5 μg OVA/1 mg alum (26, 28, 33). At 10, 11, and 12 days old, the pups were challenged for 15 min with 3% OVA (FIG. 1A). At 13 days old, the pups were weighed and killed, and tissues were collected. Serum was collected for analysis of IgE, liver was for tocopherol analysis, lung lavage was for leukocytes and cytokines, and lung tissue was for histology, flow cytometry, and qPCR of mediators of allergic inflammation. Liver was extracted and examined for tocopherols by high-pressure liquid chromatography with electrochemical detection as we previously described (7, 50). Bronchoalveolar lavage (BAL) cells were stained and counted as previously described (3). […] Lung tissue sections were fixed in cold methanol for 15 min, rehydrated for 60 min with PBS, and stained with eosin and methyl green as we previously described (6).
In these studies, allergic responses were induced in 6-wk-old adult female mice by sensitization with OVA/alum at weeks 0 and 1 and challenge with OVA or saline three times a week during weeks 4, 8, 12, and 18 as in the timeline in FIG. 1A. Next, the females were supplemented with D-α-tocopherol at the time of mating (FIG. 1A). The mothers were given a standard basal diet (45 mg D-α-tocopherol/kg diet) or supplemented with 150, 250, or 500 mg D-α-tocopherol/kg diets (Table 1). […] All pups from the mothers were challenged with a suboptimal regimen of OVA as previously described (46); the pups received one, instead of two, sensitizations with OVA-alum and then received three challenges with aerosolized OVA (FIG. 1A).
Where [5] appears, read: PND13 OVA-challenged pups, maternal supplementation.
Where [6] appears, read: maternal supplementation, discussion statement.

The structures appear in SMILES notation. Where only a bound is given, the exact number is not on record here.

`Cc1c(C)c2c(c(C)c1O)CC[C@@](C)(CCC[C@H](C)CCC[C@H](C)CCCC(C)C)O2` [D-α-tocopherol, D-α-Tocopherol]: the “increase of pup liver D-α-tocopherol with maternal supplementation” value in data set [1] is given as 2.5 fold. Further, in data set [2] (setting [5]), the “lung tissue number of CD11c+CD11b+ subsets of DCs, including resident conventional DCs, mDCs, and CD11b+ alveolar DCs” value is “significantly reduced”; the “pup lung CD11c+CD11b− subsets of cells, including pDCs, resident CD103+DCs, CD11b− alveolar DCs, and alveolar macrophages” value is reported as “did not alter”. Also, in data set [2] (pup lung, among the groups (data not shown)), the “mean fluorescence intensity for MHCII, CD80, and CD86 on CD11c+CD11b+DCs and CD11c+CD11b−DCs” value is “not different”. Also, the “pup lung pDC-to-cDC ratio” value in data set [2] (supplementation of allergic mothers, OVA-challenged pups, 0.3 with basal diet) is 0.53. Moreover, the cell viability entry in data set [3] was “no effect”. In addition, in data set [4] (150 mg α-tocopherol/kg maternal diet, pups PND13), the “percent eosinophils in the BAL” value is reported as “partially inhibited”. In addition, in data set [4] (250 mg α-tocopherol/kg maternal diet, pups PND13), the “percent eosinophils in the BAL” value was “greatest inhibition”. The “development of the allergic response in cross-fostered neonates” value in data set [4] (250 mg/kg diet during pregnancy only, pups cross-fostered to allergic mothers with basal diet) is recorded as “sufficient to inhibit”. Also, the “allergic responses in cross-fostered neonates” value in data set [4] (250 mg/kg diet supplementation during lactation only, cross-fostered) is reported as “reduced”. Besides, in data set [4] (500 mg α-tocopherol/kg maternal diet, pups PND13), the “percent eosinophils in the BAL” value is “greatest inhibition”. Besides, the “inhibition of BAL eosinophils in the OVA-challenged pups” value in data set [4] (500 mg/kg diet started at second mating, second litter of allergic mothers) was greater than 90%. Further, in data set [4] (among the D-α-tocopherol treatment groups, ELISA), the “OVA-specific serum IgE in pups” value is given as “not different”. Also, the “allergic inflammation in the OVA-stimulated pups from allergic mothers” value in data set [4] (maternal diet 150, 250 or 500 mg/kg diet vs basal 45 mg/kg, pregnancy and lactation, PND13 BAL) is reported as “dose-dependent inhibition”. For the same compound, the “eosinophils in the lung tissue of OVA-challenged pups” value in data set [4] (maternal supplementation of allergic female mice, eosin/methyl green histology) was “reduced”. Further, in data set [4] (maternal supplementation, PND13 pups of the liver tocopherol/DC experiment (FIG. 9D)), the “allergic responses in the lung (BAL eosinophils and monocytes)” value is reported as “blocked”. Besides, in data set [4] (setting [6]), the body weight result is reported as “did not affect” and the lung weight result was “did not affect”. Also, in data set [4] (maternal supplemented diets), the pup gender distribution entry is “no effect” and the pup numbers entry is “no effect”. Besides, in data set [4] (maternal supplemented diets, pups PND13), the pup weight result is reported as “no effect”.
